Experimental data published in patent US10695337B2, “Piperidin-4-yl azetidine derivatives as JAK1 inhibitors” (Incyte Corporation, priority 2010, dated 2020).

Target: human JAK1 (a.a. 837-1142)
Assay: In vitro JAK kinase assay (HTRF, phosphorylation of a biotinylated peptide), JAK1
Assay type: biochemical
Details: measured at 1 mM ATP; JAK2 IC50 / JAK1 IC50
Method: Compounds herein were tested for inhibitory activity of JAK targets according to the following in vitro assay described in Park et al., Analytical Biochemistry 1999, 269, 94-104. The catalytic domains of human JAK1 (a.a. 837-1142), Jak2 (a.a. 828-1132) and Jak3 (a.a. 781-1124) with an N-terminal His tag were expressed using baculovirus in insect cells and purified. The catalytic activity of JAK1, JAK2 or JAK3 was assayed by measuring the phosphorylation of a biotinylated peptide. The phosphorylated peptide was detected by homogenous time resolved fluorescence (HTRF). […] Reactions were carried out at room temperature for 1 hr and then stopped with 20 μL 45 mM EDTA, 300 nM SA-APC, 6 nM Eu-Py20 in assay buffer (Perkin Elmer, Boston, Mass.). Binding to the Europium labeled antibody took place for 40 minutes and HTRF signal was measured on a Fusion plate reader (Perkin Elmer, Boston, Mass.).

N#CCC1(n2cc(-c3ncnc4[nH]ccc34)cn2)CN(C2CCN(C(=O)c3c(F)ccc(F)c3F)CC2)C1 [Example 47, {3-[4-(7H-pyrrolo[2,3-d]pyrimidin-4-yl)-1H-pyrazol-1-yl]-1-[1-(2,3,6-trifluorobenzoyl)piperidin-4-yl]azetidin-3-yl}acetonitrile]
IC50 Ratio JAK2/JAK1: 3.7

N#CCC1(n2cc(-c3ncnc4[nH]ccc34)cn2)CN(C2CCN(Cc3c(F)cccc3C(F)(F)F)CC2)C1 [Example 213, {1-{1-[2-fluoro-6-(trifluoromethyl)benzyl]piperidin-4-yl}-3-[4-(7H-pyrrolo[2,3-d]pyrimidin-4-yl)-1H-pyrazol-1-yl]azetidin-3-yl}acetonitrile]
IC50 Ratio JAK2/JAK1: 9.7

Cc1onc(-c2ccccc2)c1CN1CCC(N2CC(CC#N)(n3cc(-c4ncnc5[nH]ccc45)cn3)C2)CC1 [Example 230, {1-{1-[(5-methyl-3-phenylisoxazol-4-yl)methyl]piperidin-4-yl}-3-[4-(7H-pyrrolo[2,3-d]pyrimidin-4-yl)-1H-pyrazol-1-yl]azetidin-3-yl}acetonitrile]
IC50 Ratio JAK2/JAK1: 9.3

Cc1ccc(NC(=O)N2CCC(N3CC(CC#N)(n4cc(-c5ncnc6[nH]ccc56)cn4)C3)CC2)c(F)n1 [Example 200, 4-{3-(cyanomethyl)-3-[4-(7H-pyrrolo[2,3-d]pyrimidin-4-yl)-1H-pyrazol-1-yl]azetidin-1-yl}-N-(2-fluoro-6-methylpyridin-3-yl)piperidine-1-carboxamide]
IC50 Ratio JAK2/JAK1: 6.7

N#CCC1(n2cc(-c3c(F)cnc4[nH]ccc34)cn2)CN(C2CCN(C(=O)c3ccnc(C(F)(F)F)n3)CC2)C1 [Example 353, [3-[4-(5-Fluoro-1H-pyrrolo[2,3-b]pyridin-4-yl)-1H-pyrazol-1-yl]-1-(1-{[2-(trifluoromethyl)pyrimidin-4-yl]carbonyl}piperidin-4-yl)azetidin-3-yl]acetonitrile]
IC50 Ratio JAK2/JAK1: 5.0

N#CCC1(n2cc(-c3ncnc4[nH]ccc34)cn2)CN(C2CC3CCC(C2)N3C(=O)c2ccc(Cl)c(F)c2)C1 (stereo not shown) [Example 141, {1-[8-(4-chloro-3-fluorobenzoyl)-8-azabicyclo[3.2.1]oct-3-yl]-3-[4-(7H-pyrrolo[2,3-d]pyrimidin-4-yl)-1H-pyrazol-1-yl]azetidin-3-yl}acetonitrile]
IC50 Ratio JAK2/JAK1: 6.2

N#CCC1(n2cc(-c3c(F)cnc4[nH]ccc34)cn2)CN(C2CCN(C(=O)c3ccnc(C(F)(F)F)c3F)CC2)C1 [Example 314, (3-[4-(5-Fluoro-1H-pyrrolo[2,3-b]pyridin-4-yl)-1H-pyrazol-1-yl]-1-{1-[3-fluoro-2-(trifluoromethyl)isonicotinoyl]piperidin-4-yl}azetidin-3-yl)acetonitrile]
IC50 Ratio JAK2/JAK1: 11.0

N#CCC1(n2cc(-c3ncnc4[nH]ccc34)cn2)CN(C2CCN(Cc3cc(Cl)cc(Cl)c3)CC2)C1 [Example 210, {1-[1-(3,5-dichlorobenzyl)piperidin-4-yl]-3-[4-(7H-pyrrolo[2,3-d]pyrimidin-4-yl)-1H-pyrazol-1-yl]azetidin-3-yl}acetonitrile]
IC50 Ratio JAK2/JAK1: 4.3

N#CCC1(n2cc(-c3ncnc4[nH]ccc34)cn2)CN(C2CCN(C(=O)c3cc(C(F)(F)F)ncc3F)CC2)C1 [Example 343, {1-{1-[5-Fluoro-2-(trifluoromethyl)isonicotinoyl]piperidin-4-yl}-3[4-(7H-pyrrolo[2,3-d]pyrimidin-4-yl)-1H-pyrazol-1-yl]azetidin-3-yl}acetonitrile]
IC50 Ratio JAK2/JAK1: 5.5

N#CCC1(n2cc(-c3c(F)cnc4[nH]ccc34)cn2)CN(C2CCN(C(=O)c3ccc(O)c(F)c3)CC2)C1 [Example 322, {1-[1-(3-fluoro-4-hydroxybenzoyl)piperidin-4-yl]-3-[4-(5-fluoro-1H-pyrrolo[2,3-b]pyridin-4-yl)-1H-pyrazol-1-yl]azetidin-3-yl}acetonitrile]
IC50 Ratio JAK2/JAK1: 4.7

N#CCC1(n2cc(-c3ncnc4[nH]ccc34)cn2)CN(C2CCN(C(=O)Nc3nc(-c4ccc(Cl)cc4)cs3)CC2)C1 [Example 195, N-[4-(4-chlorophenyl)-1,3-thiazol-2-yl]-4-{3-(cyanomethyl)-3-[4-(7H-pyrrolo[2,3-d]pyrimidin-4-yl)-1H-pyrazol-1-yl]azetidin-1-yl}piperidine-1-carboxamide]
IC50 Ratio JAK2/JAK1: 3.2

N#CCC1(n2cc(-c3ncnc4[nH]ccc34)cn2)CN(C2CCN(C(=O)c3cccc(OC(F)(F)F)c3)CC2)C1 [Example 21, (3-[4-(7H-pyrrolo[2,3-d]pyrimidin-4-yl)-1H-pyrazol-1-yl]-1-{1-[3-(trifluoromethoxy)benzoyl]piperidin-4-yl}azetidin-3-yl)acetonitrile]
IC50 Ratio JAK2/JAK1: 3.2

N#CCC1(n2ccc(-c3ncnc4[nH]ccc34)c2)CN(C2CCN(C(=O)c3c(F)cccc3F)CC2)C1 [Example 279, {1-[1-(2,6-difluorobenzoyl)piperidin-4-yl]-3-[3-(7H-pyrrolo[2,3-d]pyrimidin-4-yl)-1H-pyrrol-1-yl]azetidin-3-yl}acetonitrile]
IC50 Ratio JAK2/JAK1: 4.1

CC1CC(N2CC(CC#N)(n3cc(-c4ncnc5[nH]ccc45)cn3)C2)CCN1Cc1c(F)cccc1Cl (stereo not shown) [Example 245, {1-[1-(2-chloro-6-fluorobenzyl)-2-methylpiperidin-4-yl]-3-[4-(7H-pyrrolo[2,3-d]pyrimidin-4-yl)-1H-pyrazol-1-yl]azetidin-3-yl}acetonitrile]
IC50 Ratio JAK2/JAK1: 1.5

N#CCC1(n2cc(-c3ncnc4[nH]ccc34)cn2)CN(C2CCN(C(=O)Nc3ccccc3Cl)CC2)C1 [Example 163, N-(2-chlorophenyl)-4-{3-(cyanomethyl)-3-[4-(7H-pyrrolo[2,3-d]pyrimidin-4-yl)-1H-pyrazol-1-yl]azetidin-1-yl}piperidine-1-carboxamide]
IC50 Ratio JAK2/JAK1: 12.0

COc1cccc(NC(=O)N2CCC(N3CC(CC#N)(n4cc(-c5ncnc6[nH]ccc56)cn4)C3)CC2)c1 [Example 181, 4-{3-(cyanomethyl)-3-[4-(7H-pyrrolo[2,3-d]pyrimidin-4-yl)-1H-pyrazol-1-yl]azetidin-1-yl}-N-(3-methoxyphenyl)piperidine-1-carboxamide]
IC50 Ratio JAK2/JAK1: 4.9

N#CCC1(n2cc(-c3ncnc4[nH]ccc34)cn2)CN(C2CCN(C(=O)Nc3ccc(F)c(F)c3)CC2)C1 [Example 176, 4-{3-(cyanomethyl)-3-[4-(7H-pyrrolo[2,3-d]pyrimidin-4-yl)-1H-pyrazol-1-yl]azetidin-1-yl}-N-(3,4-difluorophenyl) piperidine-1-carboxamide]
IC50 Ratio JAK2/JAK1: 5.1

N#CCC1(n2cc(-c3ncnc4[nH]ccc34)cn2)CN(C2CCN(Cc3cc(F)cc(F)c3)CC2)C1 [Example 215, {1-[1-(3,5-difluorobenzyl)piperidin-4-yl]-3-[4-(7H-pyrrolo[2,3-d]pyrimidin-4-yl)-1H-pyrazol-1-yl]azetidin-3-yl}acetonitrile]
IC50 Ratio JAK2/JAK1: 5.7

CCCOC(=O)N1CCC(N2CC(CC#N)(n3cc(-c4ncnc5[nH]ccc45)cn3)C2)CC1 [Example 386, Propyl 4-{3-(cyanomethyl)-3-[4-(7H-pyrrolo[2,3-d]pyrimidin-4-yl)-1H-pyrazol-1-yl]azetidin-1-yl}piperidine-1-carboxylate]
IC50 Ratio JAK2/JAK1: 7.7

N#CCC1(n2cc(-c3ncnc4[nH]ccc34)cn2)CN(C2CCN(C(=O)c3sc4cc(F)ccc4c3Cl)CC2)C1 [Example 91, {1-{1-[(3-chloro-6-fluoro-1-benzothien-2-yl)carbonyl]piperidin-4-yl}-3-[4-(7H-pyrrolo[2,3-d]pyrimidin-4-yl)-1H-pyrazol-1-yl]azetidin-3-yl}acetonitrile]
IC50 Ratio JAK2/JAK1: 1.7

N#CCC1(n2cc(-c3ncnc4[nH]ccc34)cn2)CN(C2CCN(C(=O)c3cccc(F)c3)CC2)C1 [Example 25, {1-[1-(3-fluorobenzoyl)piperidin-4-yl]-3-[4-(7H-pyrrolo[2,3-d]pyrimidin-4-yl)-1H-pyrazol-1-yl]azetidin-3-yl}acetonitrile]
IC50 Ratio JAK2/JAK1: 5.8

N#CCC1(n2ccc(-c3ncnc4[nH]ccc34)c2)CN(C2CCN(C(=O)c3c(F)ccc(F)c3F)CC2)C1 [Example 270, {3-[3-(7H-pyrrolo[2,3-d]pyrimidin-4-yl)-1H-pyrrol-1-yl]-1-[1-(2,3,6-trifluorobenzoyl)piperidin-4-yl]azetidin-3-yl}acetonitrile]
IC50 Ratio JAK2/JAK1: 6.1

CS(=O)(=O)N1CCC(N2CC(CC#N)(n3ccc(-c4ncnc5[nH]ccc45)c3)C2)CC1 [Example 348, {1-[1-(Methylsulfonyl)piperidin-4-yl]-3-[3-(7H-pyrrolo[2,3-d]pyrimidin-4-yl)-1H-pyrrol-1-yl]azetidin-3-yl}acetonitrile]
IC50 Ratio JAK2/JAK1: 3.2

N#CCC1(n2cc(-c3ncnc4[nH]ccc34)cn2)CN(C2CCN(C(=O)Nc3nccs3)CC2)C1 [Example 190, 4-{3-(cyanomethyl)-3-[4-(7H-pyrrolo[2,3-d]pyrimidin-4-yl)-1H-pyrazol-1-yl]azetidin-1-yl}-N-1,3-thiazol-2-ylpiperidine-1-carboxamide]
IC50 Ratio JAK2/JAK1: 2.1

COc1ccsc1C(=O)N1CCC(N2CC(CC#N)(n3cc(-c4ncnc5[nH]ccc45)cn3)C2)CC1 [Example 81, {1-{1-[(3-methoxy-2-thienyl)carbonyl]piperidin-4-yl}-3-[4-(7H-pyrrolo[2,3-d]pyrimidin-4-yl)-1H-pyrazol-1-yl]azetidin-3-yl}acetonitrile]
IC50 Ratio JAK2/JAK1: 4.2
